Data published in patent US9023987B2, “Cell-permeable peptide” (Seoul National University R&DB Foundation, priority 2010, dated 2015).

Assays:
[1] = tested on: human mesenchymal stem cells (hMSC); assay: Cell differentiation ability by Alizarin red S staining; format: cell-based; conditions: 10 mM, hard tissue-forming medium, 14 days, compared with PBS; FIG. 4A a-c
Experimental: In order to confirm cell differentiation ability of the cell permeable peptide-bone differentiation inducing sequence conjugate by the amount of phosphorylated calcium, human mesenchymal stem cells (hMSC) were seeded in a 24-well plate at 1×10^3/well, and then treated with the cell permeable peptide-bone differentiation inducing sequence conjugate synthesized from Example 1 and the bone differentiation inducing sequence of Comparative Example 2 of […] for each, and then incubated in a hard tissue-forming medium for 14 days. The hard tissue-forming medium contained an MSCBM medium containing 15% FBS (fetal bovine serum), […] of L-ascorbic acid, 10^−7 M dexamethasone, 1% antibiotic-antimycotic solution, and 10 mM beta-glycerol phosphate. After completion of the incubation, the medium was removed, and then the cells were washed with phosphate buffer solution (PBS) twice. The cells were fixed using 90% ethanol at 4° C. for 15 minutes, followed by washing with distilled water twice, and then stained with 2% Alizarin red S Solution (pH 4.2; Alizarin red S powder, Junsei, JAPAN).

[2] = tested on: human mesenchymal stem cells (hMSC); assay: Cytotoxicity / cell proliferation by quantitative BrdU assay; format: cell-based; parameters: dose or concentration left out as unconfirmed; conditions: 24, 48, and 72 hours, FIG. 6
Experimental: In order to confirm whether or not cell proliferation is affected by potential toxicity when the cell permeable peptide-bone differentiation inducing sequence conjugate and control domains are cultured with hMSC, a degree of cell proliferation was analysis by ELISA using BrdU. Since BrdU was introduced in chromosome instead of deoxy thymidine triphosphate (dTTP) at the time of DNA replication during a proliferation process of hMSC, a degree of introduction of BrdU may reflect a degree of proliferation of hMSC.
First, After 1×10^3 human Mesenchymal Stem cells (hMSC) were plated into each well of 96-well plate, the degree of introduction of BrdU, that is, the degree of proliferation of hMSC was measured using a cell proliferation ELISA kit (BrdU (colorimetry); Boehringermanheim, Germany). Simply describing this method, the cells were treated with the cell permeable peptide-bone differentiation inducing sequence conjugate synthesized by the method in Example 1 and the domains of Example 2 at a concentration of […] and cultured in medium for forming hard tissue for 24, 48, and 72 hours. […] of BrdU (5-bromo-2′-deoxyuridine) was added to each of the groups before 24 hours of each culture time and further cultured for 24 hours. […] The reaction was terminated by 1N H2SO4, and then absorbance was measured using the ELISA reader (Bio-Tek, USA) at 450 nm.

[3] = tested on: human mesenchymal stem cells (hMSC); assay: Cell permeability by fluorescence imaging (confocal scanning microscope); format: cell-based; conditions: FITC/fluorescence-labeled, FIG. 3A, FIG. 7
Experimental: The domains synthesized in Example 1 and Comparative Examples 1 and 2 were labeled with a fluorescent material in order to measure cell permeability. 10 equivalents of fluorescein isothiocyanate (FITC) was bound to N-terminals of the synthesized domains by using triethylamine (1 ml per 1 g of resin). The synthesis of the peptide was confirmed by measuring the molecular weight thereof through MALDI-TOF.
In order to measure the cell permeability of the cell permeable peptide-bone differentiation inducing sequence conjugate, after sterile slide glass was input in a 6-well plate and 2×10^4 human mesenchymal stem cells (hMSC) were plated in each well, the cells were cultured in a general medium for 20 hours (overnight incubation). Then the cells was cultured in an hMSC basal medium (MSCBM, LONZA, USA) containing 0.5% fetal bovine serum (FBS, GIBCO, USA) for 20 hours (overnight starvation). […] fluorescence labeled cell permeable peptide-bone differentiation inducing sequence conjugate and […] fluorescence labeled bone differentiation inducing sequence that were obtained by binding FITC (SIGMA, USA) N-terminals of the cell permeable peptide-bone differentiation inducing sequence conjugate synthesized by the method in Example 1 and the domain in Comparative Example 2 to synthesize the fluorescence label conjugate and fluorescence label domain, followed by isolation and purification, were injected into each well and washed with phosphate buffer solution (PBS) two times after 20 minutes and 80 minutes of injection. The resultants was observed using a confocal scanning microscope (IX 70, Olympus Co., Tokyo, Japan).

[4] = biological target: T1, human-derived Smurf1 protein (Homo sapiens, UniProt Q9HCE7); assay: Slot-blot assay of binding to Smurf1
T1 construct: purchased Origene Technologies (Rockville, Md., USA)
T1 sequence (Q9HCE7 whole entry): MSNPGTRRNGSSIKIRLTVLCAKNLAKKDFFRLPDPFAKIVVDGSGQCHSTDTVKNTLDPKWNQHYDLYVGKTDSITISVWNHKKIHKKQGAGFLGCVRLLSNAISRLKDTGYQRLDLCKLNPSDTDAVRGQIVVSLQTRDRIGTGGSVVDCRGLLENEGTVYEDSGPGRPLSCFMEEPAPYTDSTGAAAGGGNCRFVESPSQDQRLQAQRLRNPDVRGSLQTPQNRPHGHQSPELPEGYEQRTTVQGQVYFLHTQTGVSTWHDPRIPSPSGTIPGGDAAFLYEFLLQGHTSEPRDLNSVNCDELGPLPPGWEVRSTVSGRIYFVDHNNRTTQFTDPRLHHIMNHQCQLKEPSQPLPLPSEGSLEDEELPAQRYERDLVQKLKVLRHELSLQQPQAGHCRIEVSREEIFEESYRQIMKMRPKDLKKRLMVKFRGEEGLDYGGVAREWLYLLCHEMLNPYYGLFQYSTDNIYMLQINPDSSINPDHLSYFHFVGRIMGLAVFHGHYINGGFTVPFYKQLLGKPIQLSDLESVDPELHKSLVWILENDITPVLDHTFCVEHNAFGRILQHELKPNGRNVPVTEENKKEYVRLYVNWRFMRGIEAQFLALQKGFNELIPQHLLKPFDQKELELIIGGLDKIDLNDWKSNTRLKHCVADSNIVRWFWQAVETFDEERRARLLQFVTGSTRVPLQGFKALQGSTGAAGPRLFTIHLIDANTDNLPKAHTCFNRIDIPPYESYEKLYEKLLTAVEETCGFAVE
From the text: In order to confirm presence or absence of the active site of the cell permeable peptide-bone differentiation inducing sequence conjugate synthesized by the method in Example 1 for binding to Smurf1 and binding degrees according to the concentration, a slot blot assay were used. This experimental method is a molecular biological method of positioning a protein on a membrane and sucking the protein in the other side to strongly attach the protein on a surface of the membrane, directly positioning a material to be confirm an interaction with the attached protein and culturing for a predetermine time to induce the binding, and blotting them using antibodies to confirm the interaction (affinity) between the protein and the material through a difference of each Dot.
1 μg of human-derived Smurf1 protein was input […] per well using a slot blot device (Hoefer, Pharmacia Biotech, USA) and blotted on a predetermined position on a nitrocellulose membrane (2 μm, Pall, USA) in a vacuum state. After blotting, the nitrocellulose membrane was blocked with phosphate buffer solution containing 0.5% Tween® 20 at room temperature for 30 minutes, and then completely dried. […]

Substance: NH2-GAPPPADSAP-SSRKKNPNCRRH-C-COONH2 (H-GAPPPADSAPSSRKKNPNCRRHC-NH2; cysteine pairing not given here) [Example 1]
- differentiation into osteoblast, Alizarin red S staining of phosphorylated calcium [1]: relatively strong staining degree of phosphorylated calcium
- effect on cell proliferation (BrdU, DNA synthesis ability compared with PBS) [2]: did not affect the cell proliferation
- intracellular fluorescence after 20 minutes (confocal) ([3]; 20 minutes): fluorescent particles were observed in the cytoplasm
- intracellular fluorescence after 80 minutes (confocal) ([3]; 80 minutes): clearly observed in the cytoplasm and nucleus
- concentration at which an increase of dot size began ([4]; 0.1, 1, 10, and 100 mM, 4° C., 20 hours, FIG. 2D): 10 mM
- binding to Smurf1 protein detected as dot ([4]; biotinylated domains, slot blot, FIG. 2C): a dot was confirmed
